For one data set, the target named is T1, human Prostaglandin D Synthase (GST2) (Homo sapiens, UniProt O60760).
T1 construct: the open reading frame of human Prostaglandin D Synthase was amplified from cDNA; made in house; host or cells: E. coli TOP10F'
T1 sequence (O60760 whole entry): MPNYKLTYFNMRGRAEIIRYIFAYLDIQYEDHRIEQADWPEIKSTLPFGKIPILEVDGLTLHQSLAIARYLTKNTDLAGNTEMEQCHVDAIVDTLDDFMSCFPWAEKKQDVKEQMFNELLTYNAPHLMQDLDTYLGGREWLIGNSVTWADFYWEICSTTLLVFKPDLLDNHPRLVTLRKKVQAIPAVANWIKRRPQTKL
The data set can be described thus: Homogeneous biochemical assay of human Prostaglandin D Synthase (GST2) based on its glutathion-S-transferase activity (GSH conjugation to monochlorobimane, fluorescence).
Conditions: not given
In short, it runs like this: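 N-His-tagged human PGD synthase from E. coli, assayed via its GST activity: GSH conjugation to monochlorobimane in 50 mM MES/KOH pH 6.1, 0.7 mM GSH, 2 mM MgCl2. Compounds at final picomolar to triple-digit micromolar concentrations.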
On to `O=C(Nc1ccc(F)cc1)N1CCN(C(=O)c2ccccc2CO)CC1` [Compound XXIII, 4-(2-Hydroxymethyl-benzoyl)-piperazine-1-carboxylic acid (4-fluoro-phenyl)-amide], for which the IC50 (in general, the concentration at which inhibition is half-maximal) is 16.2 µM.

The data set is the same for the next values; noted with them: Table 2; comparative examples; read-out: GST2 inhibition IC50.
`O=C(Nc1ccc(F)nc1)c1cccc(C(=O)N2CCN(C(=O)Nc3ccc(F)cc3)CC2)c1` [Compound XVIII, 4-[3-(6-Fluoro-pyridin-3-ylcarbamoyl)-benzoyl]-piperazine-1-carboxylic acid (4-fluoro-phenyl)-amide, reference compound]: the IC50 was determined as 19.5 µM.

Regarding `O=C(Nc1ccc(F)cc1)N1CCN(C(=O)c2cccc(NS(=O)(=O)c3ccccc3)c2)CC1` [Compound XX, 4-(3-Benzenesulfonylamino-benzoyl)-piperazine-1-carboxylic acid (4-fluoro-phenyl)-amide, reference compound], the IC50 was 19.6 µM.

Consider `NC(=O)c1ccccc1C(=O)N1CCN(C(=O)Nc2ccc(F)cc2)CC1` [Compound XXI, 4-(2-Carbamoyl-benzoyl)-piperazine-1-carboxylic acid (4-fluoro-phenyl)-amide, reference compound], for which the IC50 worked out at 16.8 µM.

In the case of `COC(=O)c1ccccc1C(=O)N1CCN(C(=O)Nc2ccc(F)cc2)CC1` [XIII, 2-[4-(4-Fluoro-phenylcarbamoyl)-piperazine-1-carbonyl]-benzoic acid methyl ester, reference compound], the IC50 came to 28.2 µM.

With `O=C(Nc1ccc(F)cc1)N1CCN(C(=O)c2ccccc2Oc2ccccc2)CC1` [XIV, 4-(2-Phenoxy-benzoyl)-piperazine-1-carboxylic acid (4-fluoro-phenyl)-amide, reference compound], the IC50 stood at 180 µM.

Staying with this data set, now noted: given beside the compound name in Examples 1 to 167; read-out: Potency Range (GST2 IC50).
In the case of “4-(2-Fluoro-4-{[4-(3-fluoro-benzoyl)-piperazine-1-carbonyl]-amino}-phenyl)-piperazine-1-carboxylic acid isopropyl ester [Compound 50]”, the IC50 was 0.011 to 0.1 µM.

For `O=C(Nc1ccc(OC(F)(F)F)cc1)N1CCN(C(=O)c2cccc(F)n2)CC1` [Compound 21, 4-(6-Fluoro-pyridine-2-carbonyl)-piperazine-1-carboxylic acid (4-trifluoromethoxy-phenyl)-amide], the IC50 lay in the range of 0.101 to 1 µM.

In the case of `O=C(Nc1nc2cc(Cl)ccc2o1)N1CCN(C(=O)c2cccc(F)c2)CC1` [Compound 39, 4-(3-Fluoro-benzoyl)-piperazine-1-carboxylic acid (5-chloro-benzooxazol-2-yl)-amide], the IC50 was in the range of 0.101 to 1 µM.

`O=C(c1cccc(F)c1)N1CCN(C(=S)Nc2ccc(N3CCOCC3)nc2)CC1` [Compound 151, 4-(3-Fluoro-benzoyl)-piperazine-1-carbothioic acid (6-morpholin-4-yl-pyridin-3-yl)-amide]: the IC50 lay in the range of 0.011 to 0.1 µM.

On to `Cc1ccccc1C(=O)N1CCN(C(=S)Nc2ccc(N3CCOCC3)nc2)CC1` [Compound 152, 4-(2-Methyl-benzoyl)-piperazine-1-carbothioic acid (6-morpholin-4-yl-pyridin-3-yl)-amide], for which the IC50 was 0.011 to 0.1 µM.

Take `O=C(c1cccc([N+](=O)[O-])c1)N1CCN(C(=S)Nc2ccc(N3CCOCC3)nc2)CC1` [Compound 153, 4-(3-Nitro-benzoyl)-piperazine-1-carbothioic acid (6-morpholin-4-yl-pyridin-3-yl)-amide]: the IC50 was in the range of 0.101 to 1 µM.

For `NC(=O)c1cccc(C(=O)N2CCN(C(=O)Nc3ccc(F)cc3)CC2)c1` [Compound 157, 4-(3-Carbamoyl-benzoyl)-piperazine-1-carboxylic acid (4-fluoro-phenyl)-amide], the IC50 was 0.101 to 1 µM.

On to `NC(=O)c1cccc(NC(=O)N2CCN(C(=O)c3cccc(F)c3)CC2)c1` [Compound 158, 4-(3-Fluoro-benzoyl)-piperazine-1-carboxylic acid (3-carbamoyl-phenyl)-amide], for which the concentration for half-maximal inhibition (IC50) is 0.101 to 1 µM.

With `O=C(Nc1cccc(-c2ncn[nH]2)c1)N1CCN(C(=O)c2cccc(F)c2)CC1` [Compound 159, 4-(3-Fluoro-benzoyl)-piperazine-1-carboxylic acid [3-(2H-[1,2,4]triazol-3-yl)-phenyl]-amide], the IC50 lay in the range of 0.101 to 1 µM.

Turning to `NC(=O)c1cc(NC(=O)N2CCN(C(=O)c3cccc(F)c3)CC2)ccc1F` [Compound 160, 4-(3-Fluoro-benzoyl)-piperazine-1-carboxylic acid (3-carbamoyl-4-fluoro-phenyl)-amide], the IC50 is 0.101 to 1 µM.

With `O=C(Nc1ccc(F)c(-c2ncn[nH]2)c1)N1CCN(C(=O)c2cccc(F)c2)CC1` [Compound 161, 4-(3-Fluoro-benzoyl)-piperazine-1-carboxylic acid [4-fluoro-3-(2H-[1,2,4]triazol-3-yl)-phenyl]-amide], the IC50 lay within 0.101 to 1 µM.

Turning to `CC(C)c1noc(-c2cccc(NC(=O)N3CCN(C(=O)c4cccc(F)c4)CC3)c2)n1` [Compound 162, 4-(3-Fluoro-benzoyl)-piperazine-1-carboxylic acid [3-(3-isopropyl-[1,2,4]oxadiazol-5-yl)-phenyl]-amide], the IC50 lay within 0.011 to 0.1 µM.

As for `CC(C)c1noc(-c2cc(NC(=O)N3CCN(C(=O)c4cccc(F)c4)CC3)ccc2F)n1` [Compound 163, 4-(3-Fluoro-benzoyl)-piperazine-1-carboxylic acid [4-fluoro-3-(3-isopropyl-[1,2,4]oxadiazol-5-yl)-phenyl]-amide], the half-maximal inhibitory concentration (IC50) was 0.011 to 0.1 µM.

For `O=C(Nc1ccc(C(F)(F)F)cc1)N1CCN(C(=O)c2ccccc2)CC1` [Compound 164, 4-Benzoyl-piperazine-1-carboxylic acid (4-trifluoromethyl-phenyl)-amide], the IC50 is 0.011 to 0.1 µM.

As to `O=C(Nc1ccc(C(F)(F)F)cc1)N1CCN(C(=O)c2cccc(Cl)c2)CC1` [Compound 165, 4-(3-Chloro-benzoyl)-piperazine-1-carboxylic acid (4-trifluoromethyl-phenyl)-amide], the IC50 lay within 0.101 to 1 µM.

As to `O=C(Nc1cccc(Nc2ccccc2)c1)N1CCN(C(=O)c2cccc(F)c2)CC1` [Compound 166, 4-(3-Fluoro-benzoyl)-piperazine-1-carboxylic acid (3-phenylamino-phenyl)-amide], the IC50 was 0.101 to 1 µM.

On to `O=C(Nc1cccc(Nc2ccc(F)cc2)c1)N1CCN(C(=O)c2cccc(F)c2)CC1` [Compound 167, 4-(3-Fluoro-benzoyl)-piperazine-1-carboxylic acid [3-(4-fluoro-phenylamino)-phenyl]-amide], for which the IC50 fell in the range of 0.101 to 1 µM.

Test system in the next data set: not listed separately
The data set can be described thus: Mouse microsomal metabolism assay. Type of data set: in vitro ADME. The following applies: liver microsomes; mouse hepatic microsomes, 37° C., phosphate buffer pH 7.4, NADPH regenerating system; read-out: Mouse t½. As for the experimental part:
Selected GST2 Inhibitors from Formula I Assessed in Mouse Microsomal Metabolism Assay
Selected GST2 inhibitors of General Formula (I) were screened in a mouse hepatic microsome assay to determine microsomal metabolism.
Test Articles were prepared in 50% acetonitrile.
Mouse hepatic microsomes supplied by BD GenTest Inc or an equivalent reputable supplier.
Test Articles are added to incubation plates containing phosphate buffer pH 7.4 and microsomes at a suitable protein concentration. Incubation plates are placed on a shaking water bath at 37° C. for 5 minutes pre-incubation. An aliquot of the reaction mixture is taken and added to acetonitrile (3:1). This is designated time […]. NADPH regenerating system in phosphate buffer pH 7.4 is added to initiate reactions. Aliquots from the incubation wells are taken at a number of time points and added to acetonitrile. Control incubations contained no microsomes or compounds with known microsomal stabilities. Samples were subject to centrifugation to remove denatured protein and the supernatants were analysed by LCMS.
Half lives were calculated from the log vs time transformed data according to the following equation: […]
Where λ is the slope of the linear regression line under first order (Test Article concentration <Km) conditions.
With `O=C(Nc1ccc(OC(F)(F)F)cc1)N1CCN(C(=O)c2cccc(F)n2)CC1` [Compound 21, 4-(6-Fluoro-pyridine-2-carbonyl)-piperazine-1-carboxylic acid (4-trifluoromethoxy-phenyl)-amide], the half-life was more than 60 min.

On to `O=C(Nc1nc2cc(Cl)ccc2o1)N1CCN(C(=O)c2cccc(F)c2)CC1` [Compound 39, 4-(3-Fluoro-benzoyl)-piperazine-1-carboxylic acid (5-chloro-benzooxazol-2-yl)-amide], for which the half-life is more than 60 min.

Consider `O=C(Nc1ccc(F)cc1)N1CCN(C(=O)c2cccc(F)n2)CC1` [XXIII, 4-(6-Fluoro-pyridine-2-carbonyl)-piperazine-1-carboxylic acid (4-fluoro-phenyl)-amide], for which the half-life is more than 60 min.

Take `O=C(Nc1ccc(N2CCOCC2)nc1)N1CCN(Cc2cccc(F)c2)CC1` [XXIV, 4-(3-Fluoro-benzyl)-piperazine-1-carboxylic acid (6-morpholin-4-yl-pyridin-3-yl)-amide]: the half-life turned out to be 31.4 min.

Turning to `O=C(Nc1ccc(F)cc1)N1CCN(Cc2cccc3c2OC(F)(F)O3)CC1` [XXIX, 4-(2,2-Difluoro-benzo[1,3]dioxol-4-ylmethyl)-piperazine-1-carboxylic acid (4-fluoro-phenyl)-amide], the half-life turned out to be 12.1 min.

As for `O=C(Nc1ccc(N2CCOCC2)nc1)N1CCN(Cc2ccccc2)CC1` [XXV, 4-Benzyl-piperazine-1-carboxylic acid (6-morpholin-4-yl-pyridin-3-yl)-amide], the half-life worked out at 27.6 min.

For the compound `O=C(Nc1ccc(F)cc1)N1CCN(Cc2ccccc2O)CC1` [XXVI, 4-(2-Hydroxy-benzyl)-piperazine-1-carboxylic acid (4-fluoro-phenyl)-amide], the half-life is 21.9 min.

Turning to `O=C(Nc1ccc(N2CCNCC2)c(F)c1)N1CCN(Cc2cccc(F)n2)CC1` [XXVII, 4-(6-Fluoro-pyridin-2-ylmethyl)-piperazine-1-carboxylic acid (3-fluoro-4-piperazin-1-yl-phenyl)-amide], the half-life worked out at 20.9 min.

For `O=C(Nc1ccc(N2CCOCC2)nc1)N1CCN(Cc2cc(F)cc(F)c2)CC1` [XXVIII, 4-(3,5-Difluoro-benzyl)-piperazine-1-carboxylic acid (6-morpholin-4-yl-pyridin-3-yl)-amide], the half-life was 15.5 min.

Consider `O=C(Nc1ccc(F)cc1)N1CCN(Cc2cccc(F)c2)CC1` [XXX, 4-(3-Fluoro-benzyl)-piperazine-1-carboxylic acid (4-fluoro-phenyl)-amide], for which the half-life worked out at 10.6 min.

With `Cc1ccccc1CN1CCN(C(=O)Nc2ccc(F)cc2)CC1` [XXXI, 4-(2-Methyl-benzyl)-piperazine-1-carboxylic acid (4-fluoro-phenyl)-amide], the half-life came out at 4.4 min.

The data set is the same for the next values; noted with them: mouse hepatic microsomes, 37° C., phosphate buffer pH 7.4, NADPH regenerating system.
Regarding “4-(2-Fluoro-4-{[4-(3-fluoro-benzoyl)-piperazine-1-carbonyl]-amino}-phenyl)-piperazine-1-carboxylic acid isopropyl ester [Compound 50]”, the “Mouse t½” value is more than 60 min.
